From ChEMBL document CHEMBL5055652 (Bioorg Med Chem, 2021)
The source made the active and inactive calls. No cut-off for these calls is given here.

Experiments:
Assay type in all cases: cell-based
[1] = target: T1, Progesterone receptor (Homo sapiens) (UniProt P06401); experiment: Agonist activity at PR in human T47D cells using p-nitrophenyl phosphate as substrate assessed as induction of alkaline phosphatase activity at 1 nM incubated for 72 hrs followed by substrate addition measured after 24 hrs by alkaline phosphatase assay relative to control; details: filed as agonist, time 96.0 hrs
T1 sequence (whole entry): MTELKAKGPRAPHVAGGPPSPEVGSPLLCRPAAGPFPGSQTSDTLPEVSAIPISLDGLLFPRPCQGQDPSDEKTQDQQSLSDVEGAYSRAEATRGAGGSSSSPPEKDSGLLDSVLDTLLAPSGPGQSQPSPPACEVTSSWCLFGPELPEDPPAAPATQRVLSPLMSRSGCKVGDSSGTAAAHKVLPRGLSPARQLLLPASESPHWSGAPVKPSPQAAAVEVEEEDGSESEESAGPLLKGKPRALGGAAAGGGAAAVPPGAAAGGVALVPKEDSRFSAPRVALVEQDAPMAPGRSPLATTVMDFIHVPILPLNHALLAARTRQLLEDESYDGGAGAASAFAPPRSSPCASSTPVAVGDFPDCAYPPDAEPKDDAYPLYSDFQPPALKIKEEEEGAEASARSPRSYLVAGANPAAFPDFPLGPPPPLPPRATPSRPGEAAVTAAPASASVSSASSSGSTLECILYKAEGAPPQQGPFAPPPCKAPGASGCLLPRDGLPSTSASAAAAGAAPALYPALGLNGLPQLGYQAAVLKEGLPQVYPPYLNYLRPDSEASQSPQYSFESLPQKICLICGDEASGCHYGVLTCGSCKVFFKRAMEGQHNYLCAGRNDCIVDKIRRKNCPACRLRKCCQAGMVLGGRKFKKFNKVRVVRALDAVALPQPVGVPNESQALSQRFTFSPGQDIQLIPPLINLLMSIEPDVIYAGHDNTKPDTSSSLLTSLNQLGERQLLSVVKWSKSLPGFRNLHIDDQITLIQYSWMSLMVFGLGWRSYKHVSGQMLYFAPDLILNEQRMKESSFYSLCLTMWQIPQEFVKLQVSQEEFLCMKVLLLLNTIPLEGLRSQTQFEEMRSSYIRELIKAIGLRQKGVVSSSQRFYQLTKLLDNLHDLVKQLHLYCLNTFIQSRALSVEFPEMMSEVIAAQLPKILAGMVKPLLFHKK

Progesterone receptor = target: T2, Progesterone receptor (Homo sapiens, UniProt P06401); experiment: Agonist activity at PR in human T47D cells using p-nitrophenyl phosphate as substrate assessed as induction of alkaline phosphatase activity incubated for 72 hrs followed by substrate addition measured after 24 hrs by alkaline phosphatase assay
T2 sequence (P06401 whole entry): T1 sequence (whole entry)

[2] = target: T1, Progesterone receptor (Homo sapiens); experiment: Agonist activity at PR in human T47D cells using p-nitrophenyl phosphate as substrate assessed as fold increase in alkaline phosphatase activity at 25 nM incubated for 72 hrs followed by substrate addition measured after 24 hrs by alkaline phosphatase assay relative to control; details: filed as agonist, time 96.0 hrs
[3] = target: T1, Progesterone receptor (Homo sapiens); experiment: Agonist activity at PR in human T47D cells using p-nitrophenyl phosphate as substrate assessed as induction of alkaline phosphatase activity at 125 nM incubated for 72 hrs followed by substrate addition measured after 24 hrs by alkaline phosphatase assay; details: time 96.0 hrs

CC(=O)[C@H]1CC[C@H]2[C@@H]3CCC4=CC(=O)CC[C@]4(C)[C@H]3CC[C@]12C
Activity [1]: 158%

CC(=O)O[C@]1(C(C)=O)CC[C@H]2[C@@H]3CCC4=CC(=O)CC[C@@H]4[C@H]3[C@@H](C)C[C@@]21C [NORGESTOMET]
Activity [1]: 106% | EC50 (Progesterone receptor): 4.5 nM | fold change (FC) [2]: 2

CC(=O)O[C@@]1(C(C)=O)CC[C@H]2[C@@H]3CCC4=CC(=O)CC[C@@H]4[C@H]3[C@@H](C)C[C@@]21C
Activity [1]: 89.3% | EC50 (Progesterone receptor): > 125 nM | Activity [3]: inactive
